According to publication PMC9822133, “Design, Synthesis and Antiproliferative Evaluation of Bis-Indole Derivatives with a Phenyl Linker: Focus on Autophagy” (Molecules, 2022):

What was measured:
[1] = test system: A549 human lung cancer cells; assay: MTT assay with cis-platin alone or combined with compound 49; format: cell-based; settings: A549, CisPt 10 μM + compound 49 20 μM
Source text: Furthermore, the depletion of GSH has been documented to potentiate the effect of anticancer drugs. Glutathione plays an important role in cisPt detoxification, so depletion of GSH is believed to potentiate the cisPt-induced DNA damage and increase the chemosensitivity of cancer cells to this anticancer drug. Due to the GSH-depleting effect of compound 49, we performed a set of experiments with cis-platin (CisPt) alone or in combination with compound 49 (Figure 9). […] Simultaneous treatments with CisPt (10 μM) and 20 μM of compound 49 caused a 59% reduction in cell growth.
(§1) The MTT assay is a colorimetric method used to quantify the metabolic activity of cells. MTT (3-(4,5-di-methylthiazol-2-yl)2,5-diphenyltetrazolium bromide) (Sigma-Aldrich Chemie, Steinheim, Germany) is reduced by oxidoreductases in the cytosol of cells to light-absorbing formazan, the presence of which can be measured spectrophotometrically and determines the half-maximal inhibitory concentration (IC50). […]
(§2) We also incubated the cells with chloroquine at concentrations of 5–20 µM, which was added 1 h before the addition of the test substance, and cisplatin at concentrations of 3–10 µM. […] After 24 h, the absorbance was measured at a wavelength of 540 nm using an automated Cytation™ 3 Cell Imaging Multi-Mode Reader (Biotek, Winooski, VT, USA). […]

A549 = assay: MTT screening assay, A549; format: cell-based; settings: Homo sapiens, 72 h incubation
Source text: (§3) The ability of newly synthesized indole phytoalexins to suppress cell proliferation was screened in vitro on eight cancer cell lines including human colorectal carcinoma (Caco-2 and HCT116), human cervical cancer (HeLa), human breast adenocarcinoma (MCF-7, MDA-MB-231), human alveolar adenocarcinoma (A549) and human leukemic T cell lymphoma (Jurkat), and two non-cancer cell lines (MCF-10A, Cos-7).
(§4) The cell lines used for this study were Caco-2 (human colorectal adenocarcinoma cell line, American Type Culture Collection, Manassas, VA, USA (ATCC)), HCT116 (human colorectal carcinoma cells European Collection of Authenticated Cell Cultures, Salisbury, UK (ECACC)), HeLa (human cervical tumor cells, ECACC), MCF-7 (human breast tumor cells, ECACC), MDA-MB-231 (human breast tumor cells, ATCC), A549 (human lung carcinoma cells, ATCC), BLM (human melanoma lung metastases, a gift from prof. K. Smetana, Institute of Anatomy, Charles University in Prague), Jurkat (human leukemia cell line, ECACC), Cos-7 (immortalized monkey kidney fibroblasts, ATCC) and MCF-10A (human mammary epithelial cells, ATCC). Caco-2, MCF-7, BLM, Cos-7 and A549 cells were cultured in Dulbecco’s Modified Eagle’s Medium (DMEM) with high glucose and sodium pyruvate (GE Healthcare, Piscataway, NJ, USA); HCT116 lines, HeLa, MDA-MB-231 and Jurkat were cultured in RPMI-1640 medium; and MCF10A cells were cultured in high glucose DMEM/F12 (Dulbecco’s Modified Eagle’s Medium F12). The media were enriched with 10% fetal bovine serum (FBS) and a 1% solution of a mixture of antibiotics and antimycotics 1× HyClone™ (GE Healthcare, Chicago, IL, USA). DMEM/F12 medium was supplemented with epidermal growth factor (EGF) (20 ng/mL final), hydrocortisone (0.5 μg/mL final) and insulin (10 μg/mL final) (Sigma-Aldrich Chemie, Steinheim, Germany). The cells were placed in an incubator at 37 °C with humidified air containing 5% CO2.
as §1, with “(IC50). A549 cells were seeded in […] culture plates at a density of 5 × 10^3 per well.” for “(IC50).”
as §2

A549 cells = assay: Cell cycle analysis by flow cytometry; format: cell-based, human
Procedure: To examine whether the antiproliferative effect of compound 49 is associated with cell cycle arrest, flow cytometry analyses of cell cycle progression were performed.
The A549 lung human alveolar adenocarcinoma cells were seeded at a density of 2 × 10^5/dish. After 24 h incubation, the cells were treated with indole phytoalexin 49 at 20 µM concentration alone or after 1 h pre-treatment with chloroquine (20 µM), and the control group with DMSO (v/v 0.02%). The whole population of treated cells (adherent and floating) for cell cycle analyses was harvested at three different times (24, 48 and 72 h), washed in cold washing buffer (PBS), fixed in cold 70% ethanol and stored at −20 °C at least overnight. For flow cytometry analyses, cell suspensions were washed with PBS, resuspended in staining solution (Triton X-100 final concentration 0.1%, ribonuclease A final concentration 0.5 mg/mL, and propidium iodide final concentration 0.025 mg/mL) and incubated for 30 min in the dark at RT. Stained cells were analyzed using a BD FACSCalibur^TM Flow Cytometer (Becton Dickinson, San Jose, CA, USA) in FL-2 channel. Three independent analyses were performed.

Jurkat = assay: MTT screening assay, Jurkat; format: cell-based; settings: Homo sapiens, 72 h incubation
Source text: as §3, §4
as §1, with “(IC50). A549 cells were seeded in […] culture plates at a density of 5 × 10^3 per well.” for “(IC50).”
as §2

## CC(C)(C)OC(=O)n1cc(CNC(=O)Nc2ccc(NC(=O)NCc3cn(C(=O)OC(C)(C)C)c4ccccc34)cc2)c2ccccc21 [Compound 49, N,N′-(1,4-phenylene)bis{N′-[1-(tert-butoxycarbonyl)indol-3-yl]methyl (urea)}]
[1]
  reduction in cell growth, combination: 59%
A549
  IC50: 8.7 ± 0.1 µM
A549 cells; A549, 20 µM, 24, 48 and 72 h, vs DMSO
  changes in the G1, S or G2/M phases of the cell cycle: non-significant changes
A549 cells; A549, 20 µM, all time points, vs DMSO control
  sub-G0/G1 subpopulation (marker of apoptosis): minimal changes
A549 cells; A549, 49 20 µM + CQ 20 µM, 24 h, vs DMSO, CQ or 49 alone
  cell cycle, combination with CQ: significant cell cycle arrest at the G1 phase
A549 cells; A549, 49 20 µM + CQ 20 µM, all time points
  subG0/G1 subpopulation, combination with CQ: non-significant changes
Jurkat
  IC50: 98.8 ± 1.7 µM
